Entries after “also recorded” stand apart in the source; their conditions may differ.

This test has as its system mouse vibrissa follicles. The test can be described thus: Mouse vibrissa organ culture system. Type of test: cell-based, mice. Conditions: 4 days. As for the experimental part:
Whisker pads were isolated from three 5 week old female C57/BL mice and were shortly immersed in 70% ethanol in phosphate-buffered saline (PBS), followed by a 10 minute incubation in William's E medium containing 400 U/ml penicillin, 400 μg/ml streptomycin, and 1.0 μg/ml fungizone (all from GibcoBRL). Vibrissa follicles in the anagen growth phase were isolated under a dissecting microscope, and the part of the vibrissa shaft that extend over the epidermal surface was cut off. Vibrissa follicles were then incubated on Millapore membranes in William's E medium alone (n-8), in medium containing 50 ng/ml recombinant murine VEGF (R&D Systems; n=6), or medium containing 5% fetal bovine serum (FBS; n=8). The media were replaced by fresh media after 2 days, and the follicles were incubated over a total period of 4 days. After 4 days, the length of the outgrowing hair shafts was measured by image analysis of digital pictures, taken under a Nikon E600 microscope.
In addition, whisker follicles were isolated and cultured as described above. Seven follicles were treated with 5 μg/ml of a goat anti-mouse VEGF neutralizing antibody (R&D Systems), and 8 follicles were treated with 5 μg/ml of normal goat IgG.

As for VEGF, under “50 ng/ml recombinant murine VEGF, control 1.963±0.101 mm”, the “average hair growth (length of outgrowing hair shafts)” value amounted to 1.959±0.086 mm. For the same substance, for the setting “vibrissa organ culture, absence of a vascular system”, the “effect on in vitro hair growth compared with control” value is “no significant differences; also recorded: did not influence”.

These data come from US6773881B2, “Methods of modulating hair growth” (The General Hospital Corporation, priority 2000, dated 2004).
